“And” between values parts separate entries of the source, which are not always exact repeats. Equal values may be shown once. Toxic doses and inconclusive results are not listed. Cut-off read from the data, not from the text of the source: active = T/C of 150% or more; inactive = T/C below 125%.
System: L1210 leukemia ip in BDF1 mice, survival T/C
Assay: NCI In Vivo Anticancer Drug Screen. Data for tumor model L1210 Leukemia (intraperitoneal) in B6D2F1 (BDF1) mice
Settings: endpoint: mean survival time, higher = longer survival
In short: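 Tumor cells were implanted, animals were treated, and survival was followed. The result divides the treated measurement by the vehicle-control measurement.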

[1] = dose: 100.0 mg/kg/injection, schedule: Q01DX009 (ip), vehicle: Klucel (hydroxypropylcellulose) (HPC)
[2] = dose: 200.0 mg/kg/injection, schedule: Q01DX009 (ip), vehicle: Klucel (hydroxypropylcellulose) (HPC)
[3] = dose: 400.0 mg/kg/injection, schedule: Q01DX009 (ip), vehicle: Klucel (hydroxypropylcellulose) (HPC)

Measured: T/C

CC(=O)c1cccc(NC(=O)Nc2ccccc2)c1
inactive: [1] 94 % of control | dose: 100.0 mg/kg/injection, schedule: Q04DX003 (ip), vehicle: Klucel (hydroxypropylcellulose) (HPC) 100 % of control | [2] 98 % of control | dose: 200.0 mg/kg/injection, schedule: Q04DX003 (ip), vehicle: Klucel (hydroxypropylcellulose) (HPC) 96 % of control | [3] 100 % of control | dose: 400.0 mg/kg/injection, schedule: Q04DX003 (ip), vehicle: Klucel (hydroxypropylcellulose) (HPC) 97 % of control

CCCCCCCCCCCCc1ccc(-c2cc(-c3ccccc3)cc(-c3ccccc3)c2)cc1
inactive: dose: 75.0 mg/kg/injection, schedule: Q01DX001 (ip), vehicle: saline 100 % of control | dose: 150.0 mg/kg/injection, schedule: Q01DX001 (ip), vehicle: saline 89 % of control | dose: 300.0 mg/kg/injection, schedule: Q01DX001 (ip), vehicle: saline 94 % of control

[CH3][Pb]([CH3])([CH3])[O]C(=O)C(F)(F)F
inactive: dose: 12.5 mg/kg/injection, schedule: Q04DX002 (ip), vehicle: saline 90 % of control

CN(C)C(=S)SCSC(=S)N(C)C
inactive: dose: 25.0 mg/kg/injection, schedule: Q04DX003 (ip), vehicle: saline with Tween-80 100 % of control | dose: 50.0 mg/kg/injection, schedule: Q04DX003 (ip), vehicle: saline with Tween-80 91 % of control | dose: 100.0 mg/kg/injection, schedule: Q04DX002 (ip), vehicle: Klucel (hydroxypropylcellulose) (HPC) 97 % of control | dose: 100.0 mg/kg/injection, schedule: Q04DX003 (ip), vehicle: saline with Tween-80 91 % of control | dose: 200.0 mg/kg/injection, schedule: Q04DX002 (ip), vehicle: Klucel (hydroxypropylcellulose) (HPC) 93 % of control | dose: 400.0 mg/kg/injection, schedule: Q04DX002 (ip), vehicle: Klucel (hydroxypropylcellulose) (HPC) 93 % of control

N=C(N)c1ccc(Oc2ccc(-c3cc4ccc(C(=N)N)cc4[nH]3)cc2)cc1
inactive: dose: 1.56 mg/kg/injection, schedule: Q01DX009 (ip), vehicle: saline with Tween-80 90 % of control | dose: 3.12 mg/kg/injection, schedule: Q01DX009 (ip), vehicle: saline with Tween-80 106 % of control | dose: 6.25 mg/kg/injection, schedule: Q04DX003 (ip), vehicle: saline 100 % of control (2×) and 112 % of control | dose: 12.5 mg/kg/injection, schedule: Q01DX009 (ip), vehicle: saline with Tween-80 119 % of control | dose: 12.5 mg/kg/injection, schedule: Q04DX003 (ip), vehicle: saline 112 % of control and 120 % of control and 122 % of control | dose: 25.0 mg/kg/injection, schedule: Q04DX003 (ip), vehicle: saline 112 % of control

COc1cc(C=Nc2ccc(C)c(C)c2)ccc1OC(=O)c1ccccc1
inactive: dose: 100.0 mg/kg/injection, schedule: Q04DX002 (ip), vehicle: saline with Tween-80 106 % of control | dose: 200.0 mg/kg/injection, schedule: Q04DX002 (ip), vehicle: saline with Tween-80 106 % of control | dose: 400.0 mg/kg/injection, schedule: Q04DX002 (ip), vehicle: saline with Tween-80 95 % of control

c1ccc(NC2=NCCO2)nc1
inactive: dose: 50.0 mg/kg/injection, schedule: Q01DX009 (ip), vehicle: saline with Tween-80 100 % of control | dose: 100.0 mg/kg/injection, schedule: Q01DX009 (ip), vehicle: saline with Tween-80 94 % of control | dose: 200.0 mg/kg/injection, schedule: Q01DX009 (ip), vehicle: saline with Tween-80 102 % of control

CC(C)CCC(=O)CCC1CCCCC1
inactive: dose: 100.0 mg/kg/injection, schedule: Q01DX001 (ip), vehicle: saline 92 % of control | dose: 200.0 mg/kg/injection, schedule: Q01DX001 (ip), vehicle: saline 92 % of control | dose: 400.0 mg/kg/injection, schedule: Q01DX001 (ip), vehicle: saline 94 % of control

CC1=CC(=O)c2ccccc2C1=O
inactive: dose: 10.0 mg/kg/injection, schedule: Q01DX015 (ip), vehicle: carboxymethylcellulose (CMC) 90 % of control | dose: 15.0 mg/kg/injection, schedule: Q01DX015 (ip), vehicle: carboxymethylcellulose (CMC) 90 % of control | dose: 20.0 mg/kg/injection, schedule: Q01DX015 (ip), vehicle: carboxymethylcellulose (CMC) 90 % of control | dose: 43.0 mg/kg/injection, schedule: Q01DX001 (ip), vehicle: carboxymethylcellulose (CMC) 97 % of control | dose: 64.0 mg/kg/injection, schedule: Q01DX001 (ip), vehicle: carboxymethylcellulose (CMC) 102 % of control | dose: 85.0 mg/kg/injection, schedule: Q01DX001 (ip), vehicle: carboxymethylcellulose (CMC) 108 % of control

O=C(C1OC1c1ccccc1)C1OC1c1ccccc1 (stereo unspecified)
inactive: [1] 98 % of control | [2] 101 % of control | [3] 95 % of control

CCCCCCCCCCCCCCCCC(O)CO (stereo unspecified)
inactive: [1] 96 % of control | [2] 102 % of control | [3] 96 % of control

CCCCCCCCCCCCCCCCCSc1ccc2ccccc2c1
inactive: [1] 97 % of control | [2] 100 % of control | [3] 95 % of control
